Columns and labels:
Human IBAT Transporter = target: T1, Human IBAT Transporter (Homo sapiens, UniProt Q12908); assay: Electrogenic transport in Xenopus oocytes expressing IBAT; format: cell-based; conditions: relative to glycodeoxycholate, test compound 100 μM
T1 sequence (Q12908 1-348): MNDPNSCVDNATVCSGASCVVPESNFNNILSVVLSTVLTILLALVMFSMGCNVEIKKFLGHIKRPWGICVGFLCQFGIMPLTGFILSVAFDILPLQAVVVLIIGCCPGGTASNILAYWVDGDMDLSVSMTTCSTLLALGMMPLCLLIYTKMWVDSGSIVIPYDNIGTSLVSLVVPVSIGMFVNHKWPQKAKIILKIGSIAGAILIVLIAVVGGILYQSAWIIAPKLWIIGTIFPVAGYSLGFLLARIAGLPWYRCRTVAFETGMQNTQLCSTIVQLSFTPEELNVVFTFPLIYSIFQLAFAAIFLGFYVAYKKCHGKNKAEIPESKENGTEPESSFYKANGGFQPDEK
Experimental: Human IBAT Transporter cDNAs were subcloned into a modified pGEM plasmid that contains 5′ and 3′ untranslated sequences from the Xenopus β-actin gene. These sequences increase RNA stability and protein expression. Plasmid cDNA was linearized and used as template for in vitro transcription (Epicentre Technologies transcription kit, 4:1 methylated:non-methylated GTP).
Xenopus oocyte isolation. Xenopus laevis frogs were anesthetized by immersion in Tricaine ([…] in deionized water) for 15 min. Oocytes were removed and digested in frog ringer solution (90 mM NaCl, 2 mM KCl, 1 mM MgCl2, 10 mM NaHEPES, pH 7.45, no CaCl2) with 1 mg/mL collagenase (Worthington Type 3) for 80-100 min with shaking. The oocytes were washed 6 times, and the buffer changed to frog ringer solution containing CaCl2(1.8 mM). Remaining follicle cells were removed if necessary. Cells were incubated at 16° C., and each oocyte injected with […] RNA in […] solution.
Electrophysiology measurements. Transport currents were measured 2-14 days after injection, using a standard two-electrode electrophysiology set-up (Geneclamp 500 amplifier, Digidata 1320/PCLAMP software and ADInstruments hardware and software were used for signal acquisition). Electrodes ([…]) were microfabricated using a Sutter Instrument puller and filled with 3M KCl. The bath was directly grounded (transporter currents were less than 0.3 μA). Bath flow was controlled by an automated perfusion system (ALA Scientific Instruments, solenoid valves).
For transporter pharmacology, oocytes were clamped at −60 to −90 mV, and continuous current measurements acquired using PowerLab Software and an ADInstruments digitizer. Current signals were lowpass filtered at 20 Hz and acquired at 4-8 Hz. All bath and drug-containing solutions were frog ringers solution containing CaCl2. Drugs were applied for 10-30 seconds until the induced current reached a new steady-state level, followed by a control solution until baseline currents returned to levels that preceded drug application. […]

[1] = cited from earlier work; for half-life: human, in vivo

Molecule	% Max. (GDC) response (Human IBAT Transporter)	half-life [1]	oral bioavailability of levodopa ([1]; from conventional formulations of levodopa/carbidopa (e.g. Sinemet))	administered dose reaching the CNS intact ([1]; in patients)
CC(CCC(=O)NC(Cc1ccc(O)c(O)c1)C(=O)O)C1CCC2C3C(O)CC4CC(O)CCC4(C)C3CC(O)C12C (stereo not shown) [(101), Cholyl-DOPA]	0%	–	–	–
C[C@H](CCC(=O)N[C@@H](Cc1ccc2oc(=O)oc2c1)C(=O)O)[C@H]1CC[C@H]2[C@@H]3[C@H](O)C[C@@H]4C[C@H](O)CC[C@]4(C)[C@H]3C[C@H](O)[C@]12C [(104), Cholyl-Dopa-(3,4-carbonate)]	25%	–	–	–
C[C@@](Cc1ccc(O)c(O)c1)(NN)C(=O)O [carbidopa]	–	~2 h	–	–
N[C@@H](Cc1ccc(O)c(O)c1)C(=O)O [levodopa, L-dihydroxyphenylalanine]	–	~2 h	84-99%	less than 1%
Cholyl-DOPA-(4-pivaloyloxymethyl) [(102)]	104%	–	–	–
